Columns and labels:
Assay type in all cases: in vivo
Veronica persica = assay: Test Example 5: herbicidal effect by foliage application, plastic box (symbol R); conditions: 320 g/ha, 3 weeks after application
How it was run: (§1)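 Herbicide, formulated as an emulsion and diluted in water, is sprayed onto the aerial parts of 14-day seedlings. These were grown at 25° C. to 30° C. in sterilized diluvial soil; effects are graded after 3 weeks.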

Monochoria vaginalis [1] = assay: Test Example 1: herbicidal activity, application before weed generation in submerged conditions (symbol C); conditions: application herbicide amount 320 g/ha
How it was run: (§2)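 Greenhouse growth at 25–30 °C lasted 3 weeks after treatment, when each weed was graded 0–5 by herbicidal ratio. Treatment was a diluted emulsion applied to the water surface of 4 cm-submerged alluvial soil on the sowing day.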

wheat [2] = assay: Test Example 5: effect on crop by foliage application, plastic box (symbol e); conditions: 320 g/ha, 3 weeks after application
How it was run: (§3)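 Diluvial soil, sterilized and boxed (21 × 13 × 7 cm), received spot-sown seed covered by about 1.5 cm soil; plants were then greenhouse-grown at 25–30° C.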

[3] = tested on: Echinochloa oryzacola Vasing.; assay: Test Example 2: herbicidal activity, application during weed generation in submerged conditions (symbol A); conditions: Table 23; application herbicide amount 320 g/ha; grade 0-5 by criteria of Test Example 1
How it was run: (§4)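 Flooded-soil post-emergence test: emulsion of compound, water-diluted to target rate, applied to paddy water surface at 1–2 leaf stage of mixed-sown weeds (alluvial soil, 4 cm water, 25–30° C. greenhouse); visual rating 3 weeks after application.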

[4] = tested on: directly sowed rice plant; assay: Test Example 3: effect on crop by foliage application, Wagner pot (symbol b); conditions: application herbicide amount 320 g/ha
How it was run: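 Greenhouse culture at 25–30 °C of seeded rice, Cyperus difformis, Leptochloa chinensis and Echinochloa crus-galli var. crus-galli, in alluvial soil held under 0.1–0.5 cm of water in a Wagner pot.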

Monochoria vaginalis [5] = assay: Test Example 2: herbicidal activity, application during weed generation in submerged conditions (symbol C); conditions: Table 23; application herbicide amount 320 g/ha; grade 0-5 by criteria of Test Example 1
How it was run: as §4

wheat [6] = assay: Test Example 4: effect on crop by soil treatment (symbol e); conditions: for e: wheat, effect on crop grade / e (wheat) effect on crop grade: application herbicide amount 320 g/ha
How it was run: (§5)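 Diluvial soil (sterilized) in boxes; seeds placed spot-wise alongside weed species; ~1.5 cm covering soil. Greenhouse, 25–30° C.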

beet = assay: Test Example 4: effect on crop by soil treatment (symbol f); conditions: for f: beet, effect on crop grade / f (beet) effect on crop grade: application herbicide amount 320 g/ha
How it was run: as §5

soybean = assay: Test Example 4: effect on crop by soil treatment (symbol d); conditions: for d: soybean, effect on crop grade / d (soybean) effect on crop grade: application herbicide amount 320 g/ha
How it was run: as §5

Scirpus juncoides = assay: Test Example 1: herbicidal activity, application before weed generation in submerged conditions (symbol B); conditions: application herbicide amount 320 g/ha
How it was run: as §2

rapeseed = assay: Test Example 5: effect on crop by foliage application, plastic box (symbol g); conditions: 320 g/ha, 3 weeks after application
How it was run: as §3

Avena fatua = assay: Test Example 5: herbicidal effect by foliage application, plastic box (symbol I); conditions: 320 g/ha, 3 weeks after application
How it was run: as §1

Lolium multiflorum Lam. = assay: Test Example 4: herbicidal effect by soil treatment (symbol K)
How it was run: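 Seeds were sown in sterilized diluvial soil, covered with about 1.5 cm of soil, and the soil surface was sprayed with a water-diluted emulsion of the compound at a predetermined rate. Plants grew in a greenhouse at 25° C. to 30° C.; effects were scored visually 3 weeks after application.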

Amaranthus retroflexus = assay: Test Example 5: herbicidal effect by foliage application, plastic box (symbol N); conditions: 320 g/ha, 3 weeks after application
How it was run: as §1

[7] = application herbicide amount 320 g/ha

| Structure (SMILES) | R: Veronica persica, herbicidal effect grade (Veronica persica) | Herbicidal effect grade, C: Monochoria vaginalis (Monochoria vaginalis [1]) | e: wheat, effect on crop grade (wheat [2]) | Herbicidal effect grade, A: Echinochloa oryzacola Vasing. [3] | effect on crop b (directly sowed rice plant), grade 0-5 [4] | Herbicidal effect grade, C: Monochoria vaginalis (Monochoria vaginalis [5]) | e: wheat, effect on crop grade (wheat [6]) | f: beet, effect on crop grade (beet) | d: soybean, effect on crop grade (soybean) | Herbicidal effect grade, B: Scirpus juncoides (Scirpus juncoides) | g: rapeseed, effect on crop grade (rapeseed) | I: Avena fatua, herbicidal effect grade (Avena fatua) | K: Lolium multiflorum Lam., herbicidal effect grade (Lolium multiflorum Lam.; [7]) | N: Amaranthus retroflexus, herbicidal effect grade (Amaranthus retroflexus) | e (wheat) effect on crop grade (wheat [6]) | f (beet) effect on crop grade (beet) | d (soybean) effect on crop grade (soybean) | K (Lolium multiflorum Lam.) herbicidal effect grade (Lolium multiflorum Lam.; [7]) | further results |
| --- | --- | --- | --- | --- | --- | --- | --- | --- | --- | --- | --- | --- | --- | --- | --- | --- | --- | --- | --- |
| CCOC(=O)C(C(=O)c1ccccn1)C1CC(O)=C(c2c(C)cc(C)cc2C)C1=O (stereo not drawn) [2-013] | 2 (Herbicidal ratio of 20% or higher and lower than 40%) | 0 (Herbicidal ratio of 5% or lower (almost no effect)) | 0 (Herbicidal ratio of 5% or lower (almost no effect)) | 0 (Herbicidal ratio of 5% or lower (almost no effect)) | 0 (Herbicidal ratio of 5% or lower (almost no effect)) | 0 (Herbicidal ratio of 5% or lower (almost no effect)) | 0 (Herbicidal ratio of 5% or lower (almost no effect)) | 0 (Herbicidal ratio of 5% or lower (almost no effect)) | 0 (Herbicidal ratio of 5% or lower (almost no effect)) | 0 (Herbicidal ratio of 5% or lower (almost no effect)) | 4 (Herbicidal ratio of 70% or higher and lower than 90%) | 3 (Herbicidal ratio of 40% or higher and lower than 70%) | 1 (Herbicidal ratio of 5% or higher and lower than 20%) | 0 (Herbicidal ratio of 5% or lower (almost no effect)) |  |  |  |  |  |
| CON=C(C)CC1CC(O)=C(c2c(C)cc(Br)cc2C)C1=O (stereo not drawn) [6-003] | 0 (Herbicidal ratio of 5% or lower (almost no effect)) | 1 (Herbicidal ratio of 5% or higher and lower than 20%) | 0 (Herbicidal ratio of 5% or lower (almost no effect)) | 4 (Herbicidal ratio of 70% or higher and lower than 90%) | 5 (Herbicidal ratio of 90% or more (almost completely withered)) | 3 (Herbicidal ratio of 40% or higher and lower than 70%) | 0 (Herbicidal ratio of 5% or lower (almost no effect)) | 0 (Herbicidal ratio of 5% or lower (almost no effect)) | 0 (Herbicidal ratio of 5% or lower (almost no effect)) | 4 (Herbicidal ratio of 70% or higher and lower than 90%) | 4 (Herbicidal ratio of 70% or higher and lower than 90%) | 5 (Herbicidal ratio of 90% or more (almost completely withered)) | 5 (Herbicidal ratio of 90% or more (almost completely withered)) | 0 (Herbicidal ratio of 5% or lower (almost no effect)) |  |  |  |  |  |
| CON=C(C)CC1CC(OCCSC)=C(c2c(C)cc(C)cc2C)C1=O (stereo not drawn) [1-011] | 0 (Herbicidal ratio of 5% or lower (almost no effect)) | 0 (Herbicidal ratio of 5% or lower (almost no effect)) | 0 (Herbicidal ratio of 5% or lower (almost no effect)) | 0 (Herbicidal ratio of 5% or lower (almost no effect)) | 0 (Herbicidal ratio of 5% or lower (almost no effect)) | 0 (Herbicidal ratio of 5% or lower (almost no effect)) |  |  |  | 0 (Herbicidal ratio of 5% or lower (almost no effect)) | 4 (Herbicidal ratio of 70% or higher and lower than 90%) | 0 (Herbicidal ratio of 5% or lower (almost no effect)) |  | 0 (Herbicidal ratio of 5% or lower (almost no effect)) | 0 (Herbicidal ratio of 5% or lower (almost no effect)) | 0 (Herbicidal ratio of 5% or lower (almost no effect)) | 0 (Herbicidal ratio of 5% or lower (almost no effect)) | 0 (Herbicidal ratio of 5% or lower (almost no effect)) |  |
| CON=C(C)CC1CC(OC(=O)c2ccccc2)=C(c2c(C)cc(C)cc2C)C1=O (stereo not drawn) [1-010] | 4 (Herbicidal ratio of 70% or higher and lower than 90%) | 2 (Herbicidal ratio of 20% or higher and lower than 40%) | 5 (Herbicidal ratio of 90% or more (almost completely withered)) | 5 (Herbicidal ratio of 90% or more (almost completely withered)) | 5 (Herbicidal ratio of 90% or more (almost completely withered)) | 2 (Herbicidal ratio of 20% or higher and lower than 40%) |  |  |  | 5 (Herbicidal ratio of 90% or more (almost completely withered)) | 4 (Herbicidal ratio of 70% or higher and lower than 90%) | 5 (Herbicidal ratio of 90% or more (almost completely withered)) |  | 4 (Herbicidal ratio of 70% or higher and lower than 90%) | 4 (Herbicidal ratio of 70% or higher and lower than 90%) | 4 (Herbicidal ratio of 70% or higher and lower than 90%) | 4 (Herbicidal ratio of 70% or higher and lower than 90%) | 5 (Herbicidal ratio of 90% or more (almost completely withered)) |  |
| Cc1cc(C)c(C2=C(O)CC(CC(=O)C3CCCCC3)C2=O)c(C)c1 (stereo not drawn) [2-030] | 1 (Herbicidal ratio of 5% or higher and lower than 20%) | 0 (Herbicidal ratio of 5% or lower (almost no effect)) | 0 (Herbicidal ratio of 5% or lower (almost no effect)) | 3 (Herbicidal ratio of 40% or higher and lower than 70%) | 5 (Herbicidal ratio of 90% or more (almost completely withered)) | 0 (Herbicidal ratio of 5% or lower (almost no effect)) | 0 (Herbicidal ratio of 5% or lower (almost no effect)) | 0 (Herbicidal ratio of 5% or lower (almost no effect)) | 0 (Herbicidal ratio of 5% or lower (almost no effect)) | 0 (Herbicidal ratio of 5% or lower (almost no effect)) | 3 (Herbicidal ratio of 40% or higher and lower than 70%) | 1 (Herbicidal ratio of 5% or higher and lower than 20%) | 4 (Herbicidal ratio of 70% or higher and lower than 90%) | 0 (Herbicidal ratio of 5% or lower (almost no effect)) |  |  |  |  |  |
| CON=C(C)CC1CC(OS(=O)(=O)CC[Si](C)(C)C)=C(c2c(C)cc(C)cc2C)C1=O (stereo not drawn) [1-144] |  | 3 (Herbicidal ratio of 40% or higher and lower than 70%) |  | 5 (Herbicidal ratio of 90% or more (almost completely withered)) | 5 (Herbicidal ratio of 90% or more (almost completely withered)) | 2 (Herbicidal ratio of 20% or higher and lower than 40%) |  |  |  | 5 (Herbicidal ratio of 90% or more (almost completely withered)) |  |  |  |  |  |  |  |  | R: Veronica persica, herbicidal effect (criteria 0-5) (Veronica persica): 3 (Herbicidal ratio of 40% or higher and lower than 70%); e: wheat, effect on crop (criteria 0-5) (wheat [2]): 4 (Herbicidal ratio of 70% or higher and lower than 90%); e: wheat, effect grade on crop (wheat [6]; 320 g/ha): 0 (Herbicidal ratio of 5% or lower (almost no effect)); f: beet, effect grade on crop (beet; 320 g/ha): 0 (Herbicidal ratio of 5% or lower (almost no effect)); d: soybean, effect grade on crop (soybean; 320 g/ha): 0 (Herbicidal ratio of 5% or lower (almost no effect)); g: rapeseed, effect on crop (criteria 0-5) (rapeseed): 4 (Herbicidal ratio of 70% or higher and lower than 90%); I: Avena fatua, herbicidal effect (criteria 0-5) (Avena fatua): 5 (Herbicidal ratio of 90% or more (almost completely withered)); K: Lolium multiflorum Lam., herbicidal effect grade (Lolium multiflorum Lam.; 320 g/ha): 4 (Herbicidal ratio of 70% or higher and lower than 90%); N: Amaranthus retroflexus, herbicidal effect (criteria 0-5) (Amaranthus retroflexus): 1 (Herbicidal ratio of 5% or higher and lower than 20%) |
